{"source": "patent US20090298824A1", "about": "“Organic compounds” (priority 2004, published 2009)", "tested_on": "neutrophils", "assay": "Neutrophil chemotaxis assay", "type": "cell-based", "conditions": "1.5 h; inhibition of neutrophil chemotaxis; chemoattractants 0.1-5 nM; 90 minutes migration at 37° C.; read-out: IC50 values in the above assay", "description": "The in vitro inhibitory properties of these compounds are determined in the neutrophil chemotaxis assay. Assays were performed in a 96-well plate format according to previously published method (Frevert C W, et al., J Immunolog. Methods, 1998, 213, 41). 96-well chemotaxis chambers 5 μm were obtained from Neuro Probe, all cell buffers were obtained from Invitrogen Paisley, UK, dextran-T500 and Ficoll-Paque Plus™ density gradient centrifugation media were purchased from Pharmacia Biotech Buckinghamshire, UK. Calcein-AM dye was obtained from Molecular Probes. Neutrophils were isolated as previously described (Haslett, C., et al. Am J Path., 1985, 119:101). Citrated whole blood was mixed with 4% (w/v) dextran-T500 and allowed to stand on ice for 30 minutes to remove erythrocytes. Granulocytes (PMN) were separated from peripheral blood mononuclear cells by layering 15 ml of cell suspension onto 15 ml Ficoll-Paque PLUS density gradient and centrifuged at 250×g for 25 minutes. […] The labelled cells were washed with RPMI without phenol red+0.1% bovine serum albumin, prior to use the cells were counted and adjusted to a final concentration of 5×10^6 cells/ml. […] At the end of the incubation period, migrated cells were quantified using a multi-well fluorescent plate reader (Fluoroskan II™, Labsystems) at 485 nm excitation and 538 nm emission. […]"}
{"smiles": "N#Cc1cc(O)c2[nH]c(Nc3cccc(Cl)c3Cl)nc2c1", "note": "[Example 2, 2-(2,3-Dichloro-phenylamino)-7-hydroxy-1H-benzoimidazole-5-carbonitrile]", "values": [{"measurement": "IC50", "result": 322, "unit": "nM"}]}
